We go through 51 compounds from US9718825B2, “N-(4-(azaindazol-6-yl)-phenyl)-sulfonamides and their use as pharmaceuticals” (priority 2013, dated 2017).

The test system of assay [1] is SGK-1 dependent phosphorylation of GSK3beta in U2OS cells. The experiment in a line: SGK-1 dependent phosphorylation of GSK3beta in U2OS cells overexpressing recombinant SGK-1 and GSK3beta. Format: cell-based, human. To be noted: U2OS cells, 6 h incubation, ratio of phosphorylated GSK3beta to total GSK3beta; read-out: IC50 values for inhibition of SGK-1 dependent phosphorylation of GSK3beta in U2OS cells.

Assay [2] concerns the target recombinant human SGK-1 enzyme (Homo sapiens, UniProt O00141). The experiment in a line: Enzymatic activity assay: SGK-1 substrate peptide phosphorylation (Caliper lab-chip mobility shift). It counts as biochemical. The settings on record: peptide substrate 1 μM, ATP 10 μM, 60 min at 37° C., read-out: IC50 values for inhibition of SGK-1 enzymatic activity.

Sequence of recombinant human SGK-1 enzyme (O00141 whole entry, looked up): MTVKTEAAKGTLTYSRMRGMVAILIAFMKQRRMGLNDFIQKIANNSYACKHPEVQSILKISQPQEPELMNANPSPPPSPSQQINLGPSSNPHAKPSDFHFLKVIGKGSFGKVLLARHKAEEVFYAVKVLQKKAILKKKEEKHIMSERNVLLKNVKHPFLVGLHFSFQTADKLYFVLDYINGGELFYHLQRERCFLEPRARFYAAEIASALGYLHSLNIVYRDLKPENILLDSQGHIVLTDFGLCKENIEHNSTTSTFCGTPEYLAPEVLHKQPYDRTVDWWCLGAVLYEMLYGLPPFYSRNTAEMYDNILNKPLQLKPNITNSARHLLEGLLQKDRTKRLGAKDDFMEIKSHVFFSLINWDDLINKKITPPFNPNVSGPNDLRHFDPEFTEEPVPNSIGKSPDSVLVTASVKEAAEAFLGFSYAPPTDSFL

Regarding `Cc1ccc(C#N)c(S(=O)(=O)Nc2ccc(-c3ncc4c(C)n[nH]c4n3)cc2)c1` [Example 93], the IC50 (as a rule, the midpoint of a concentration-inhibition curve) in assay [1] is 3300 nM; in assay [2], 2400 nM.

Take `Cc1n[nH]c2nc(-c3ccc(NS(=O)(=O)c4cc(Cl)ccc4C#N)cc3)nc(OCCCN)c12` [Example 220]: the IC50 in assay [1] was 170 nM; in assay [2] it was < 1.5 nM.

As for `CC(C)Oc1nc(-c2ccc(NS(=O)(=O)c3cc(Cl)ccc3Cl)cc2)nc2[nH]nc(N)c12` [Example 335], the IC50 turned out to be 350 nM in assay [1] and 8.3 nM in assay [2].

`Cc1nc(-c2ccc(NS(=O)(=O)c3cc4c(cc3Cl)OCCCO4)cc2)nc2[nH]nc(N)c12` [Example 476]: the results for the IC50 in assay [1] and in assay [2] were 3000 nM and 3.9 nM, respectively.

Turning to `Cc1ccc(F)c(S(=O)(=O)Nc2ccc(-c3nc(OC4CCNCC4F)c4c(C)n[nH]c4n3)cc2)c1` (stereo not drawn) [Example 298], the IC50 in assay [1] is 43 nM; in assay [2] it was 2.3 nM.

As to `COc1ccc(Cl)c(S(=O)(=O)Nc2ccc(-c3nc(OC4CCN(CCF)CC4)c4c(C)n[nH]c4n3)cc2)c1` [Example 341], the results for the IC50 in assay [1] and in assay [2] were 63 nM and 4.9 nM, respectively.

`COc1ccc(Cl)c(S(=O)(=O)Nc2ccc(-c3nc(OCCCN)c4cn[nH]c4n3)cc2)c1` [Example 203]: the IC50 in assay [1] is 160 nM; in assay [2], < 1.5 nM.

As to `Cc1n[nH]c2nc(-c3ccc(NS(=O)(=O)c4cc(Cl)ccc4Cl)cc3)nc(OC3CCN(CCF)CC3)c12` [Example 342], the figures for the concentration for half-maximal inhibition (IC50) in assay [1] and in assay [2] were 280 nM and 6 nM, respectively.

As to `Cc1ccc(F)c(S(=O)(=O)Nc2ccc(-c3nc(OCC4O[C@H](O)[C@H](O)[C@@H](O)[C@@H]4O)c4cn[nH]c4n3)cc2)c1` (stereo partly drawn) [Example 123], the IC50 in assay [1] was determined as 30000 nM; in assay [2] it was 9.9 nM.

As for `O=S(=O)(Nc1ccc(-c2nc(N3CCNCC3)c3cn[nH]c3n2)cc1)c1cc(Cl)ccc1Cl` [Example 17], the IC50 in assay [1] is 810 nM; in assay [2], < 1.2 nM.

As to `COc1ccc(C#N)c(S(=O)(=O)Nc2ccc(-c3ncc4c(N)n[nH]c4n3)cc2)c1` [Example 522], the figures for the IC50 in assay [1] and in assay [2] were 290 nM and 2.4 nM, respectively.

With `Cc1n[nH]c2nc(-c3ccc(NS(=O)(=O)c4ccccc4F)cc3)nc(OCCCN)c12` [Example 211], the IC50 in assay [1] is 80 nM; in assay [2], 2.3 nM.

For `Cc1ccc(C#N)cc1S(=O)(=O)Nc1ccc(-c2nc(C)c3c(N)n[nH]c3n2)cc1` [Example 473], the results for the IC50 in assay [1] and in assay [2] were 8200 nM and 32 nM, respectively.

With `Cc1ccc(F)c(S(=O)(=O)Nc2ccc(-c3nc(OC4CCC(O)CC4)c4c(C)n[nH]c4n3)cc2)c1` (stereo not drawn) [Example 101], the IC50 amounted to 430 nM in assay [1] and 2.1 nM in assay [2].

`O=S(=O)(Nc1ccc(-c2nc(N3CC(CO)C3)c3cn[nH]c3n2)cc1F)c1cc(Cl)ccc1F` [Example 441]: the figures for the IC50 in assay [1] and in assay [2] were 11000 nM and 21 nM, respectively.

Regarding `COc1nc(-c2ccc(NS(=O)(=O)c3cc(Cl)cc(F)c3F)cc2)nc2[nH]ncc12` [Example 178], the IC50 is 800 nM in assay [1] and 350 nM in assay [2].

In the case of `Cc1ccc(C#N)c(S(=O)(=O)Nc2ccc(-c3nc(C4CCC(O)C4)c4c(C)n[nH]c4n3)cc2)c1` (stereo not drawn) [Example 97], the IC50 was found to be 1600 nM in assay [1] and 2 nM in assay [2].

Consider `O=S(=O)(Nc1ccc(-c2nc(OCCCCO)c3cn[nH]c3n2)cc1)c1cc(Cl)ccc1F` [Example 35], for which the IC50 in assay [1] was 5700 nM; in assay [2], 3.2 nM.

Turning to `Nc1n[nH]c2nc(-c3ccc(NS(=O)(=O)c4cccc(Cl)c4F)cc3)ncc12` [Example 515], the IC50 was 530 nM in assay [1] and 350 nM in assay [2].

`Cc1ccc(C#N)c(S(=O)(=O)Nc2ccc(-c3nc(OC4CCN(C)CC4)c4cn[nH]c4n3)cc2)c1` [Example 314]: the IC50 in assay [1] is 250 nM; in assay [2], 4.5 nM.

`O=S(=O)(Nc1ccc(-c2nc(OC3CCC(O)C3)c3cn[nH]c3n2)cc1)c1cc(Cl)ccc1F` (stereo not drawn) [Example 75]: the IC50 in assay [1] was found to be 250 nM; in assay [2] it was 4.8 nM.

Regarding `N#Cc1ccc(Cl)cc1S(=O)(=O)Nc1ccc(-c2nc(OC3CNC3)c3cn[nH]c3n2)cc1` [Example 191], the figures for the IC50 in assay [1] and in assay [2] were 2700 nM and 21 nM, respectively.

Take `CC(C)COc1nc(-c2ccc(NS(=O)(=O)c3ccccc3Cl)cc2)nc2[nH]nc(N)c12` [Example 316]: the IC50 in assay [1] was found to be 270 nM; in assay [2] it was 480 nM.

As to `Nc1n[nH]c2nc(-c3ccc(NS(=O)(=O)c4cc(Cl)ccc4Cl)cc3)ncc12` [Example 452], the figures for the IC50 in assay [1] and in assay [2] were 980 nM and 2 nM, respectively.

As to `Cc1n[nH]c2nc(-c3ccc(NS(=O)(=O)c4ccccc4F)cc3)nc(OC3CCCNC3)c12` (stereo not drawn) [Example 323], the IC50 in assay [1] was 100 nM; in assay [2], 12 nM.

In the case of `Cc1n[nH]c2nc(-c3ccc(NS(=O)(=O)c4cc(F)ccc4C#N)cc3)nc(OC3CCC(O)CC3)c12` (stereo not drawn) [Example 131], the IC50 in assay [1] worked out at 2600 nM; in assay [2], 4.9 nM.

On to `COc1ccc(F)c(S(=O)(=O)Nc2ccc(-c3nc(OCC(F)(F)F)c4c(N)n[nH]c4n3)cc2)c1` [Example 197], for which the IC50 in assay [1] stood at 65 nM; in assay [2], 3 nM.

In the case of `Cc1ccc(F)c(S(=O)(=O)Nc2ccc(-c3nc(OCCCN)c4cn[nH]c4n3)cc2)c1` [Example 204], the IC50 in assay [1] is 130 nM; in assay [2], < 1.5 nM.

In the case of `Cc1ccc(C#N)c(S(=O)(=O)Nc2ccc(-c3nc(OCC4CNCCO4)c4cn[nH]c4n3)cc2)c1` (stereo not drawn) [Example 315], the IC50 in assay [1] amounted to 600 nM; in assay [2], 7.9 nM.

For `O=S(=O)(Nc1ccc(-c2nc(OCC3CNC3)c3cn[nH]c3n2)cc1)c1cc(Cl)ccc1F` [Example 198], the IC50 in assay [1] is 510 nM; in assay [2] it was < 1.5 nM.

As to `O=S(=O)(Nc1ccc(-c2nc(SCCCO)c3cn[nH]c3n2)cc1)c1cc(Cl)ccc1Cl` [Example 89], the IC50 was 100 nM in assay [1] and < 1.5 nM in assay [2].

As to `NCCCOc1nc(-c2ccc(NS(=O)(=O)c3cc(Cl)ccc3F)cc2)nc2[nH]ncc12` [Example 62], the IC50 in assay [1] is 450 nM; in assay [2], < 1.2 nM.

Take `COc1ccc(Cl)c(S(=O)(=O)Nc2ccc(-c3nc(N4CC(CO)C4)c4cn[nH]c4n3)cc2)c1` [Example 110]: the IC50 in assay [1] was determined as 5100 nM; in assay [2], 14 nM.

With `Cc1n[nH]c2nc(-c3ccc(NS(=O)(=O)c4cc(Cl)ccc4Cl)cc3)nc(OC3CCNCC3F)c12` (stereo not drawn) [Example 303], the results for the IC50 in assay [1] and in assay [2] were 57 nM and 2.2 nM, respectively.

Turning to `O=S(=O)(Nc1ccc(-c2nc(O[C@@H]3CCC[C@H]3O)c3cn[nH]c3n2)cc1)c1cc(Cl)ccc1Cl` [Example 88], the figures for the IC50 in assay [1] and in assay [2] were 4500 nM and 6.7 nM, respectively.

For the compound `COc1ccc(F)c(S(=O)(=O)Nc2ccc(-c3nc(OCCCN)c4cn[nH]c4n3)cc2)c1` [Example 219], the IC50 in assay [1] is 230 nM; in assay [2], < 1.5 nM.

As for `O=S(=O)(Nc1ccc(-c2nc(N[C@H]3CC[C@@H](O)CC3)c3cn[nH]c3n2)cc1)c1cc(Cl)ccc1F` [Example 77], the figures for the IC50 in assay [1] and in assay [2] were 3600 nM and 3.9 nM, respectively.

With `O=S(=O)(Nc1ccc(-c2nc(O[C@H]3CCCC(O)C3)c3cn[nH]c3n2)cc1)c1cc(Cl)ccc1F` (stereo partly drawn) [Example 84], the half-maximal inhibitory concentration (IC50) in assay [1] worked out at 1200 nM; in assay [2], 3.2 nM.

For the compound `Cc1ccc(C#N)c(S(=O)(=O)Nc2ccc(-c3nc(C4CC4)c4cn[nH]c4n3)cc2)c1` [Example 145], the IC50 in assay [1] turned out to be 350 nM; in assay [2] it was 4.1 nM.

As to `Cc1n[nH]c2nc(-c3ccc(NS(=O)(=O)c4cc5c(cc4Cl)OCCO5)cc3)ncc12` [Example 103], the IC50 in assay [1] was found to be 9100 nM; in assay [2] it was 2.3 nM.

Take `COc1ccc(F)c(S(=O)(=O)Nc2ccc(-c3nc(OC4CCC(O)CC4)c4cn[nH]c4n3)cc2)c1` (stereo not drawn) [Example 133]: the figures for the IC50 in assay [1] and in assay [2] were 260 nM and < 1.5 nM, respectively.

Turning to `Cc1n[nH]c2nc(-c3ccc(NS(=O)(=O)c4ccccc4F)cc3)nc(OC3CCNCC3F)c12` (stereo not drawn) [Example 297], the IC50 in assay [1] amounted to 80 nM; in assay [2], 1.8 nM.

Turning to `Nc1n[nH]c2nc(-c3ccc(NS(=O)(=O)c4ccccc4F)cc3)ncc12` [Example 517], the figures for the IC50 in assay [1] and in assay [2] were 170 nM and 420 nM, respectively.

Turning to `COc1ccc(C#N)c(S(=O)(=O)Nc2ccc(-c3nc(OC4CCC(O)CC4)c4cn[nH]c4n3)cc2)c1` (stereo not drawn) [Example 134], the IC50 was 640 nM in assay [1] and < 1.5 nM in assay [2].

Consider `Cc1n[nH]c2nc(-c3ccc(NS(=O)(=O)c4cc(Cl)ccc4Cl)cc3)nc(OCC3CNCCO3)c12` (stereo not drawn) [Example 313], for which the IC50 is 47 nM in assay [1] and 2 nM in assay [2].

As for `O=S(=O)(Nc1ccc(-c2nc(O[C@@H]3CCCC[C@@H]3O)c3cn[nH]c3n2)cc1)c1cc(Cl)ccc1F` (racemic) [Example 81], the IC50 in assay [1] came to 1700 nM; in assay [2] it was 11 nM.

Regarding `Nc1n[nH]c2nc(-c3ccc(NS(=O)(=O)c4cc5c(cc4Br)OCCCO5)cc3)ncc12` [Example 459], the values for the IC50 in assay [1] and in assay [2] were 4000 nM and 6.7 nM, respectively.

Regarding `Cc1ccc(F)c(S(=O)(=O)Nc2ccc(-c3nc(OCCCN)c4c(C)n[nH]c4n3)cc2)c1` [Example 207], the IC50 was 140 nM in assay [1] and < 1.5 nM in assay [2].

For the compound `NCCCOc1nc(-c2ccc(NS(=O)(=O)c3cc(F)ccc3F)cc2)nc2[nH]ncc12` [Example 199], the IC50 in assay [1] worked out at 640 nM; in assay [2], 26 nM.

`Cc1n[nH]c2nc(-c3ccc(NS(=O)(=O)c4cc(Cl)ccc4F)cc3)ncc12` [Example 10]: the IC50 in assay [1] was 430 nM; in assay [2] it was < 1.2 nM.

Consider `COc1nc(-c2ccc(NS(=O)(=O)c3cc(Cl)ccc3Cl)cc2)nc2[nH]ncc12` [Example 139], for which the IC50 in assay [1] turned out to be 5500 nM; in assay [2], 82 nM.
